From patent US20080227851A1, “L[…] L[…]” (priority 2007, published 2008)
Converted amounts (≈) assume the structure as drawn.

Tests used:
[1] = tested on: SKVLB-1; conditions: cited from earlier work; for Resistance factor (SKVLB-1/SK-OV-3): ratio of IC50 SKVLB-1/SK-OV-3
[2] = tested on: SK-OV-3 (ovarian carcinoma) cell line; conditions: cited from earlier work
[3] = tested on: KB cells; conditions: cited from earlier work
[4] = tested on: A10 cells; conditions: 2-20 μM; cited from earlier work
[5] = tested on: MDA-MB-435; conditions: cited from earlier work
[6] = tested on: MDA-MB-435 (human breast adenocarcinoma) cell line; conditions: cited from earlier work
[7] = tested on: human umbilical vein endothelial cells (HUVEC); conditions: cited from earlier work
[8] = tested on: purified tubulin; conditions: cited from earlier work
[9] = tested on: human umbilical vein endothelial cells (HUVEC); conditions: read-out: IC50, inhibition of HUVEC proliferation; cited from earlier work
[10] = 0.01 N solution of HCl in acetone; cited from earlier work
[11] = tested on: human breast carcinoma MDA-MB-435; test: sulforhodamine assay, proliferation of human tumor cells, MDA-MB-435; format: cell-based; conditions: MDA-MB-435, sulforhodamine assay
Experimental: Laulimalide analogs disclosed herein were evaluated for the ability to inhibit the proliferation of human tumor cells using the sulforhodamine assay format (Mooberry et al., Cancer Research, 1999, 59, 653-660). The two cells lines selected were the human breast carcinoma MDA-MB-435 and the corresponding MDR cell line NCI/ADR, which overexpresses the PGP efflux pump protein.

[12] = tested on: tubulin polymer; conditions: radiolabeled Taxol; cited from earlier work
[13] = SKVLB-1 (P-gp overexpressing MDR)

| Structure (SMILES) | IC50 [1, 13] [nM] | Resistance factor (SKVLB-1/SK-OV-3) [1] | IC50 [2] [nM] | IC50, cytotoxic to KB cells [3] [µg/mL] | microtubule bundling [4] | IC50 [5] [nM] | cell cycle arrest [6] | concentration inhibiting tubule formation and VEGF-induced HUVEC migration [7] | polymerization of purified tubulin [8] | IC50 [9] [nM] | time to complete acid-catalyzed decomposition to isolaulimalide [10] | IC50 [11] [nM] | competition with Taxol binding to tubulin polymer [12] | IC50 (nM) [1, 13] |
| --- | --- | --- | --- | --- | --- | --- | --- | --- | --- | --- | --- | --- | --- | --- |
| C=C1C[C@H](C)C[C@@H]2CC=C[C@@H](C/C=C\C(=O)O[C@H]3C[C@@H](O[C@H]3/C=C/[C@@H]3CC(C)=CCO3)[C@@H](O)[C@@H](O)C1)O2 [Isolaulimalide, isolaulimalide] | 2650 ± 1380 | 1.03 | 2570 ± 290 | > 0.2 | no microtubule bundles were observed | 1970 ± 97 | – | – | – | – | – | – | – | – |
| C=C1C[C@H](C)C[C@@H]2CC=C[C@@H](C/C=C\C(=O)O[C@H]([C@@H](O)/C=C/[C@@H]3CC(C)=CCO3)C[C@@H]3O[C@H]3[C@@H](O)C1)O2 [Laulimalide, laulimalide] | 1210 ± 490 | 105 | 11.5 ± 0.53 | 0.015 (≈ 0.0291 µM) | caused bundling of microtubules similar to that induced by Taxol | 5.73 ± 0.58 | cell cycle arrest at the G2/M transition | subnanomolar | caused the polymerization of purified tubulin | 4 | four | 5.7 ± 0.6 | does not compete with Taxol | – |
| CC(=O)O[C@H]1C(=O)[C@@]2(C)[C@H]([C@H](OC(=O)c3ccccc3)[C@]3(O)C[C@H](OC(=O)[C@H](O)[C@@H](NC(=O)c4ccccc4)c4ccccc4)C(C)=C1C3(C)C)[C@]1(OC(C)=O)CO[C@@H]1C[C@@H]2O [Taxol, paclitaxel] | > 100000 | >58480 | 1.71 ± 1.07 | – | – | 1.02 ± 0.25 | – | – | – | – | – | – | – | completely ineffective |
